Experimental data from PMC10687071 (The Journal of Biological Chemistry, 2023).

Molecular target: T1, PAS domain of EAG1 channels (Mus musculus, UniProt Q60603)
T1 construct: DNA encoding PAS (residues 7–136) of mouse EAG1 channels (GI # Q60603); 6-His (N); TEV protease cleavage site (N); made in house; host or cells: BL21 (DE3) Escherichia coli
T1 sequence (Q60603 7-136): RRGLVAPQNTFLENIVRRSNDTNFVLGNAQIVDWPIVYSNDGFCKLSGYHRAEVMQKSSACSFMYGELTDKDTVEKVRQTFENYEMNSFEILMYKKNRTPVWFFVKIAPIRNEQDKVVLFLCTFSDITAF
Experiment: Surface plasmon resonance, PAS domain immobilized on CM5 chip
Type: binding
Details: imipramine 1, 10 and 30 μM; concentration-dependent increase in SPR response; affinity not determined
Experimental: DNA encoding PAS (residues 7–136) of mouse EAG1 channels (GI # Q60603) was synthesized by BioBasic and subcloned into pETM11 bacterial expression vector containing an N-terminal 6-His affinity tag followed by a tobacco etch virus (TEV) protease cleavage site. The DNA sequences were verified by sequencing (Genewiz). The PAS domains were expressed in BL21 (DE3) Escherichia coli cells as previously described ([25], [63]). The cells were grown at 37 °C to an optical density at 600 nm of 0.6 to 0.8, induced with IPTG at 18 °C overnight and harvested by centrifugation. The cells were resuspended in 150 mM KCl, 1 mM TCEP, 1 mM ABSF, 2.5 mg/ml DNaseI and 30 mM HEPES, pH 7.5. Cells were lysed with an Emulsiflex-C5 (Avestin). Insoluble protein was separated by centrifugation in 45 Ti rotor at 30,000 rpm for 1 h at 4 °C. The PAS domains were purified by Ni^2+ affinity chromatography using HisTrap HP column (Cytiva) and eluted on a linear gradient to 500 mM imidazole. The protein was further purified on a Superdex 200 Increase 10/300 column (Cytiva) equilibrated with 150 mM KCl, 1 mM TCEP, 10% glycerol, and 30 mM HEPES, pH 7.5. The protein concentration was determined with Bradford Protein Assay Kit (Pierce).
All SPR binding experiments were performed on a CM5 chip (Cytiva) at 25 °C using a Biacore T200 Instrument (GE Healthcare). […]

SPR binding to the immobilized PAS domain: directly binds
Compound: CN(C)CCCN1c2ccccc2CCc2ccccc21 [imipramine]
